Test results published in patent publication US8846762B2, “Benzopyran and benzoxepin PI3K inhibitor compounds and methods of use” (Genentech, Inc., priority 2008, dated 2014).

What was measured:
[1] = Body weight change over the course of treatment in the xenograft study, as an indicator of safety; assay type: in vivo, Taconic nude mice; conditions: 50 and 100 mg/kg, orally daily for 21 days
pAkt (phospho-Akt) = assay: phospho AKT induction assay; assay type: cell-based; conditions: in each study (Example 284); cells treated with an EC80 of the compound
Procedure: In a 6-well tissue culture plate cells were seeded at 5×10^5 cells per well overnight. […] Determination of protein concentration was performed using the Pierce BCA Protein Assay Kit (Rockford, Ill.). Levels of pAkt (Ser^473) and total Akt were assessed using bead kits from Biosource (Carlsbad, Calif.) and the Luminex Bio-Plex system (Bio-Rad, Hercules, Calif.).

Question: Which “body weights compared with the group administered Vehicle” value [1] does the source give for `CNC(=O)c1ccc2c(c1)OCCc1cc(C(=O)N(C)c3ccc(C(=O)N(C)C)cc3Cl)sc1-2` [Compound 223, N2-(2-chloro-4-(dimethylcarbamoyl)phenyl)-N2,N8-dimethyl-4,5-dihydrobenzo[b]thieno[2,3-d]oxepine-2,8-dicarboxamide] here?
Answer: did not significantly differ

Question: And the “pAkt (phospho-Akt), a potential biomarker of PI3K signal transduction disruption” value (pAkt (phospho-Akt))?
Answer: suppressed pAkt
